Results from patent US9944602B2, “Piperidinone herbicides” (E. I. DU PONT DE NEMOURS AND COMPANY, priority 2014, dated 2018).

Assays:
Assay type in all cases: in vivo
[1] = system: ragweed (common ragweed, Ambrosia elatior); experiment: Test A postemergence ragweed; conditions: Ambrosia artemisiifolia, post-emergence, 240 h, 0 to 100 scale, 0 is no effect, 100 is complete control, read-out: Plant response rating, Ragweed; for pest or weed control at 125 g/ha: 125 g ai/ha; for pest or weed control at 500 g/ha: 500 g ai/ha
How it was run: (§1)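 Greenhouse pot test: chemicals formulated with surfactant in non-phytotoxic solvent, sprayed on soil at seeding (pre) or on 1–2 leaf seedlings of 2–10 cm (post). Rating ~10 d later, visual, 0 = no effect to 100 = complete control, relative to untreated controls.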

[2] = system: pigweed (Amaranthus retroflexus); experiment: Test A postemergence pigweed; conditions: Amaranthus retroflexus, post-emergence, 240 h, 0 to 100 scale, 0 is no effect, 100 is complete control, read-out: Plant response rating, Pigweed; for pest or weed control at 125 g/ha: 125 g ai/ha; for pest or weed control at 500 g/ha: 500 g ai/ha
How it was run: as §1

[3] = system: wheat (Triticum aestivum); experiment: Test A postemergence wheat; conditions: Triticum aestivum, post-emergence, 240 h, 0 to 100 scale, 0 is no effect, 100 is complete control, read-out: Plant response rating, Wheat; for plant injury at 125 g/ha: 125 g ai/ha; for plant injury at 500 g/ha: 500 g ai/ha
How it was run: as §1

[4] = system: pigweed (Amaranthus retroflexus); experiment: Test A preemergence pigweed; conditions: Amaranthus retroflexus, pre-emergence, 240 h, 0 to 100 scale, 0 no effect, 100 complete control, read-out: Pigweed plant response rating; for pest or weed control at 125 g/ha: 125 g ai/ha; for pest or weed control at 500 g/ha: 500 g ai/ha
How it was run: as §1

[5] = system: barnyardgrass (Echinochloa crus-galli); experiment: Test A preemergence barnyardgrass; conditions: Echinochloa crus-galli, pre-emergence, 240 h, 0 to 100 scale, 0 no effect, 100 complete control, read-out: Barnyardgrass plant response rating; for pest or weed control at 125 g/ha: 125 g ai/ha; for pest or weed control at 500 g/ha: 500 g ai/ha
How it was run: as §1

[6] = system: ragweed (common ragweed, Ambrosia elatior); experiment: Test A preemergence ragweed; conditions: Ambrosia artemisiifolia, pre-emergence, 240 h, 0 to 100 scale, 0 no effect, 100 complete control, read-out: Ragweed plant response rating; for pest or weed control at 125 g/ha: 125 g ai/ha; for pest or weed control at 500 g/ha: 500 g ai/ha
How it was run: as §1

kochia (Kochia scoparia) [7] = experiment: Test A postemergence kochia; conditions: Bassia scoparia, post-emergence, 240 h, 0 to 100 scale, 0 is no effect, 100 is complete control, read-out: Plant response rating, Kochia; for pest or weed control at 125 g/ha: 125 g ai/ha; for pest or weed control at 500 g/ha: 500 g ai/ha
How it was run: as §1

[8] = system: blackgrass (Alopecurus myosuroides); experiment: Test A postemergence blackgrass; conditions: Alopecurus myosuroides, post-emergence, 240 h, 0 to 100 scale, 0 is no effect, 100 is complete control, read-out: Plant response rating, Blackgrass; for pest or weed control at 125 g/ha: 125 g ai/ha; for pest or weed control at 500 g/ha: 500 g ai/ha
How it was run: as §1

[9] = system: sedge, umbrella (small-flower umbrella sedge, Cyperus difformis); experiment: Test B flooded paddy test sedge, umbrella; conditions: Cyperus difformis, Table B, Flood, 250 g ai/ha, scale 0 to 100, read-out: Plant response rating
How it was run: (§2)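 Water-applied paddy treatment: compound dosed into 3 cm flood on 2-leaf plants, read visually versus controls after 13 to 15 d.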

[10] = system: ryegrass, Italian (Italian ryegrass, Lolium multiflorum); experiment: Test A preemergence ryegrass, Italian; conditions: Lolium multiflorum, pre-emergence, 240 h, 0 to 100 scale, 0 no effect, 100 complete control, read-out: Ryegrass, Italian plant response rating; for pest or weed control at 125 g/ha: 125 g ai/ha; for pest or weed control at 500 g/ha: 500 g ai/ha
How it was run: as §1

[11] = system: barnyardgrass (Echinochloa crus-galli); experiment: Test B flooded paddy test barnyardgrass; conditions: Echinochloa crus-galli, Table B, Flood, 250 g ai/ha, scale 0 to 100, read-out: Plant response rating
How it was run: as §2

corn (Zea mays) = experiment: Test A postemergence corn; conditions: Zea mays, post-emergence, 240 h, 0 to 100 scale, 0 is no effect, 100 is complete control; for Corn plant response rating (crop injury, 0 = no effect, 100 = complete kill) at 125 g/ha: 125 g ai/ha; for Corn plant response rating (crop injury, 0 = no effect, 100 = complete kill) at 500 g/ha: 500 g ai/ha
How it was run: as §1

[12] = system: galium (catchweed bedstraw, Galium aparine); experiment: Test A postemergence galium; conditions: Galium, post-emergence, 240 h, 0 to 100 scale, 0 is no effect, 100 is complete control, read-out: Plant response rating, Galium; for pest or weed control at 125 g/ha: 125 g ai/ha; for pest or weed control at 500 g/ha: 500 g ai/ha
How it was run: as §1

kochia (Kochia scoparia) [13] = experiment: Test A preemergence kochia; conditions: Bassia scoparia, pre-emergence, 240 h, 0 to 100 scale, 0 no effect, 100 complete control, read-out: Kochia plant response rating; for pest or weed control at 125 g/ha: 125 g ai/ha; for pest or weed control at 500 g/ha: 500 g ai/ha
How it was run: as §1

[14] = system: barnyardgrass (Echinochloa crus-galli); experiment: Test A postemergence barnyardgrass; conditions: Echinochloa crus-galli, post-emergence, 240 h, 0 to 100 scale, 0 is no effect, 100 is complete control, read-out: Plant response rating, Barnyardgrass; for pest or weed control at 125 g/ha: 125 g ai/ha; for pest or weed control at 500 g/ha: 500 g ai/ha
How it was run: as §1

[15] = system: foxtail, giant (giant foxtail, Setaria faberii); experiment: Test A postemergence foxtail, giant; conditions: Setaria faberi, post-emergence, 240 h, 0 to 100 scale, 0 is no effect, 100 is complete control, read-out: Plant response rating, Foxtail, Giant; for pest or weed control at 125 g/ha: 125 g ai/ha; for pest or weed control at 500 g/ha: 500 g ai/ha
How it was run: as §1

rice (Oryza sativa) = experiment: Test B flooded paddy test rice; conditions: Oryza sativa, Table B, Flood, 250 g ai/ha, scale 0 to 100, read-out: Plant response rating
How it was run: as §2

[16] = system: ducksalad (Heteranthera limosa); experiment: Test B flooded paddy test ducksalad; conditions: Heteranthera limosa, Table B, Flood, 250 g ai/ha, scale 0 to 100, read-out: Plant response rating
How it was run: as §2

[17] = system: ryegrass, Italian (Italian ryegrass, Lolium multiflorum); experiment: Test A postemergence ryegrass, Italian; conditions: Lolium multiflorum, post-emergence, 240 h, 0 to 100 scale, 0 is no effect, 100 is complete control, read-out: Plant response rating, Ryegrass, Italian; for pest or weed control at 125 g/ha: 125 g ai/ha; for pest or weed control at 500 g/ha: 500 g ai/ha
How it was run: as §1

[18] = system: foxtail, giant (giant foxtail, Setaria faberii); experiment: Test A preemergence foxtail, giant; conditions: Setaria faberi, pre-emergence, 240 h, 0 to 100 scale, 0 no effect, 100 complete control, read-out: Foxtail, Giant plant response rating; for pest or weed control at 125 g/ha: 125 g ai/ha; for pest or weed control at 500 g/ha: 500 g ai/ha
How it was run: as §1

O=C1NCCC(c2cccc(C(F)(F)F)c2)C1C(=O)Nc1ccc(F)c(F)c1F (stereo not drawn) [Compound 30, 2-oxo-4-[3-(trifluoromethyl)phenyl]-N-(2,3,4-trifluorophenyl)-3-piperidinecarboxamide]
70%: pest or weed control at 125 g/ha [8] | Corn plant response rating (crop injury, 0 = no effect, 100 = complete kill) at 500 g/ha (corn (Zea mays))
90%: pest or weed control at 125 g/ha [5] | pest or weed control at 500 g/ha [5] | pest or weed control at 125 g/ha [18] | pest or weed control at 500 g/ha [18]
30%: plant injury at 125 g/ha [3] | Corn plant response rating (crop injury, 0 = no effect, 100 = complete kill) at 125 g/ha (corn (Zea mays))
20%: pest or weed control at 125 g/ha [10] | plant injury at 250 g/ha (rice (Oryza sativa)) | pest or weed control at 500 g/ha [17]
50%: pest or weed control at 500 g/ha [10] | pest or weed control at 250 g/ha [11] | pest or weed control at 250 g/ha [16]
80%: pest or weed control at 500 g/ha [8] | pest or weed control at 125 g/ha [14] | pest or weed control at 500 g/ha [14] | pest or weed control at 125 g/ha [15] | pest or weed control at 500 g/ha [15]
0%: pest or weed control at 125 g/ha [1] | pest or weed control at 500 g/ha [1] | pest or weed control at 125 g/ha [2] | pest or weed control at 500 g/ha [2] | pest or weed control at 125 g/ha [4] | pest or weed control at 500 g/ha [4] | pest or weed control at 125 g/ha [6] | pest or weed control at 500 g/ha [6] | pest or weed control at 125 g/ha (kochia (Kochia scoparia) [7]) | pest or weed control at 500 g/ha (kochia (Kochia scoparia) [7]) | pest or weed control at 250 g/ha [9] | pest or weed control at 125 g/ha [12] | pest or weed control at 500 g/ha [12] | pest or weed control at 125 g/ha (kochia (Kochia scoparia) [13]) | pest or weed control at 500 g/ha (kochia (Kochia scoparia) [13]) | pest or weed control at 125 g/ha [17]
60%: plant injury at 500 g/ha [3]

O=C1NCC[C@H](c2cccc(Cl)c2)[C@H]1C(=O)Nc1cccc(F)c1F [Compound 42, (3R,4S)-4-(3-chlorophenyl)-N-(2,3-difluorophenyl)-2-oxo-3-piperidinecarboxamide]
60%: plant injury at 500 g/ha [3] | pest or weed control at 500 g/ha [10] | Corn plant response rating (crop injury, 0 = no effect, 100 = complete kill) at 500 g/ha (corn (Zea mays))
80%: pest or weed control at 125 g/ha [14]
95%: pest or weed control at 250 g/ha [16]
10%: pest or weed control at 500 g/ha [4] | Corn plant response rating (crop injury, 0 = no effect, 100 = complete kill) at 125 g/ha (corn (Zea mays)) | pest or weed control at 500 g/ha [12]
75%: pest or weed control at 250 g/ha [11]
70%: pest or weed control at 500 g/ha [8]
30%: pest or weed control at 500 g/ha (kochia (Kochia scoparia) [7])
90%: pest or weed control at 125 g/ha [5] | pest or weed control at 500 g/ha [5] | pest or weed control at 500 g/ha [14] | pest or weed control at 125 g/ha [15] | pest or weed control at 500 g/ha [15] | pest or weed control at 125 g/ha [18] | pest or weed control at 500 g/ha [18]
50%: pest or weed control at 500 g/ha [17]
40%: pest or weed control at 125 g/ha [8] | pest or weed control at 125 g/ha [10] | pest or weed control at 125 g/ha [17]
0%: pest or weed control at 125 g/ha [1] | pest or weed control at 500 g/ha [1] | pest or weed control at 125 g/ha [2] | pest or weed control at 500 g/ha [2] | plant injury at 125 g/ha [3] | pest or weed control at 125 g/ha [4] | pest or weed control at 125 g/ha [6] | pest or weed control at 500 g/ha [6] | pest or weed control at 125 g/ha (kochia (Kochia scoparia) [7]) | pest or weed control at 250 g/ha [9] | pest or weed control at 125 g/ha [12] | pest or weed control at 125 g/ha (kochia (Kochia scoparia) [13]) | pest or weed control at 500 g/ha (kochia (Kochia scoparia) [13]) | plant injury at 250 g/ha (rice (Oryza sativa))
